From patent US20110262425A1, “THERAPEUTIC AGENT FOR MLL LEUKEMIA AND MOZ LEUKEMIA OF WHICH MOLECULAR TARGET IS M-CSF RECEPTOR, AND USE THEREOF” (NATIONAL CANCER CENTER, priority 2007, published 2011)
Entries after “also recorded” stand apart in the source; their conditions may differ. Where a name gives a salt, the structure may show the parent alone.

How the values were obtained:
Assay type in all cases: in vivo
M-CSFR-expressing cells = assay: Ablation of M-CSFR-expressing cells by AP20187 in MOZ-TIF2-induced AML mice (FKBP-Fas suicide gene transgenic BM cells, secondary transplantation); conditions: then 1 mg/kg every three days
Protocol: FIG. 1 depicts the result of M-CSFR expression in bone marrow cells of MOZ leukemogenesis mice. (A) BM cells from MOZ-TIF2-induced AML mice were analyzed by FACS for expression of GFP and M-CSFR. (B) M-CSFR^high cells and M-CSFR^low/- cells were sorted by flow cytometer. MOZ-TIF2 expression in these cells was investigated by immunoblot analysis using an anti-MOZ antibody. (C, D) Indicated numbers of M-CSFR^high cells (C) and M-CSFR^low/- cells (D) were transplanted into mice irradiated beforehand with a lethal dose of radiation and survival from leukemia onset was investigated. (E) Structure of genes for the M-CSFR promoter, EGFP, the NGFR-FKBP-Fas suicide construct, and activation mechanism of NGFR-FKBP-Fas. In transgenic (Tg) mice, conditional ablation of cells highly expressing M-CSFR can be induced by exposure to an AP20187 dimerizer. (F-I) AML mice were induced by transplantation of BM cells from Tg mice infected with MOZ-TIF2, and 10^5 BM cells from AML Tg mice were secondary transplanted into wild-type mice lethally-irradiated beforehand. The secondary-transplanted mice were exposed to AP20187 seven days after transplantation. Expression of GFP and M-CSFR in BM cells (F, G) and the size of spleens (H) of normal Tg mice (F), and of untreated and AP20187-treated secondary-transplanted mice (G) were analyzed four weeks after transplantation. Leukemia-free survival rate of the untreated and AP20187-treated secondary-transplanted mice were investigated (I).
In the transgenic mice, expression levels of endogenous M-CSFR were proportional to those of EGFP and FKBP-Fas (FIG. 1F), and conditional ablation of M-CSFR-expressing cells can be induced by injection of the AP20187 dimerizer (Burnett, S. H. et al., J Leukoc Biol (2004) 75: 612-23). c-KIT^+ BM cells of the transgenic mice were infected with the MOZ-TIF2 retrovirus, and transplanted into lethally-irradiated wild-type mice. These mice developed AML about two months after transplantation, and their BM cells (10^5 cells/mouse) were transplanted into secondary recipient mice. […]

MOZ-TIF2-induced AML = assay: Effect of Imatinib on MOZ-TIF2-induced AML in mice; conditions: Imatinib 100 mg/kg orally twice a day
Source text: (§1) FIG. 10 (A-D) BM cells (10^5 cells) from AML mice with MOZ-TIF2 (A), MLL-AF10 (B), or N-MYC (C) were transplanted into irradiated mice. […] (A-C) show the results of analyzing leukemia-free survival of the mice. (D) depicts the photograph showing the result of analyzing spleen sizes of the MOZ-TIF2-introduced mice three weeks after transplantation.

N-MYC-induced AML = assay: Effect of Imatinib on N-MYC-induced AML in mice; conditions: Imatinib 100 mg/kg orally twice a day
Source text: as §1

MLL-AF10-induced AML = assay: Effect of Imatinib on MLL-AF10-induced AML in mice; conditions: Imatinib 100 mg/kg orally twice a day
Source text: as §1

Compound	development of AML (leukemia-free survival) (M-CSFR-expressing cells; AP20187 10 mg/kg i.v. daily for 5 days, 5-6 weeks after transplantation)	M-CSFR^high cells in BM (M-CSFR-expressing cells; AP20187 10 mg/kg intravenously daily for 5 days, from seven days after transplantation, three weeks after transplantation)	splenomegaly (M-CSFR-expressing cells; AP20187 10 mg/kg intravenously daily for 5 days, three weeks after transplantation)	MOZ-TIF2-induced splenomegaly (MOZ-TIF2-induced AML; three weeks after transplantation)	onset of AML (leukemia-free survival) (MOZ-TIF2-induced AML; MOZ-TIF2)	progress of AML (leukemia-free survival) (N-MYC-induced AML)	onset of AML (leukemia-free survival) (MLL-AF10-induced AML)
CC[C@H](C(=O)N1CCCC[C@H]1C(=O)O[C@H](CCc1ccc(OC)c(OC)c1)c1cccc(OCC(=O)NCC(CNC(=O)COc2cccc([C@@H](CCc3ccc(OC)c(OC)c3)OC(=O)[C@@H]3CCCCN3C(=O)[C@@H](CC)c3cc(OC)c(OC)c(OC)c3)c2)CN(C)C)c1)c1cc(OC)c(OC)c(OC)c1 [AP20187]	suppressed; also recorded: none of the AP20187-treated mice, developed AML	neither M-CSFR^high cells nor splenomegaly were detected	suppressed; also recorded: neither M-CSFR^high cells nor splenomegaly were detected	–	–	–	–
Cc1ccc(NC(=O)c2ccc(CN3CCN(C)CC3)cc2)cc1Nc1nccc(-c2cccnc2)n1 [Imatinib, Imatinib mesylate]	–	–	–	inhibited	slowed onsets of AML; also recorded: delaying the leukemia onset	did not affect the progress	slowed onsets of AML; also recorded: delaying the leukemia onset
